Experimental data as given in patent US20210070687A1, “MOLECULAR WEIGHT CONTROLLING AGENT FOR RADICAL POLYMERIZATION, METHOD FOR PRODUCING POLYMER USING SAME, AND POLYMER” (SDP Global Co., Ltd., priority 2017, published 2021).

Assay: Solubility in water at 20° C. of the iodine compounds
Conditions: % means % by weight

Compound	Solubility in water (20° C.)
CC(C)(I)C(=O)O [Example 1, 2-Iodo-2-methylpropionic acid]	1.9%
CC(I)C(N)=O (centres unmarked) [Example 2, 2-Iodopropionamide]	1.2%
CC(C)(I)C(=O)OCCO [Example 3, 2-Hydroxyethyl 2-iodo-2-methylpropionate]	3.2%
CC(C)(I)C(=O)[O-].[Na+] [Example 5, Sodium 2-iodo-2-methylpropionate]	>10%
O=C([O-])C(I)c1ccccc1.[Na+] (centres unmarked) [Example 6, Sodium 2-iodo-2-phenylacetate]	>10%
O=C(O)C(I)c1ccccc1 (centres unmarked) [Reference Example 1, 2-Iodo-2-phenylacetic acid, reference compound]	0.1%
CCOC(=O)C(C)I (centres unmarked) [Reference Example 4, Ethyl 2-iodopropionate, reference compound]	0.2%
CCOC(=O)C(C)(C)I [Reference Example 5, Ethyl 2-iodo-2-methylpropionate, reference compound]	<0.1%
